Data reported in patent US8785457B2 (Cellzome Limited, priority 2009, dated 2014).
Where two headings read alike, the source gives them in different places. Blank lines part the entries; values can stand above or below the molecule they belong to.

Key:
PI3 Kbeta (PI3 Kb) = biological target: T1, PI3 Kbeta (PI3 Kb) (Homo sapiens, UniProt P42338); assay: kinobeads assay, PI3Kbeta; format: binding
T1 construct: endogenous in cells; host or cells: cell lysate
Method in brief: (§1)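 Cell lysate aliquots are incubated with compound over a concentration range and with an affinity matrix of immobilized phenylmorpholin-chromen ligand. Beads are then removed, bound proteins eluted, and each kinase is quantified by multiplexed immunodetection to derive IC50 values.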

PI3 Kgamma (PI3 Kg) = biological target: T2, PI3 Kgamma (PI3 Kg) (Homo sapiens, UniProt P48736); assay: kinobeads assay, PI3Kgamma; format: binding
T2 construct: endogenous in cells; host or cells: cell lysate
Method in brief: as §1

PI3Kalpha (PI3Ka) = biological target: T3, PI3Kalpha (PI3Ka) (Homo sapiens, UniProt P42336); assay: kinobeads assay, PI3Kalpha; format: binding
T3 construct: endogenous in cells; host or cells: cell lysate
Method in brief: as §1

[1] = test system: S6RP serine-240/244 phosphorylation; assay: In vitro Phospho-S6 cellular assay (pS6RP S240/244) in HEK293T/17 cells; format: cell-based; conditions: Homo sapiens, 2 hours, read-out: pS6 IC50
Source text: Activation of mTOR signaling results in phosphorylation of several downstream targets. In cells, mTOR exists in two different protein complexes. The mTOR Complex-1 (mTORC1) phosphorylates and activates S6 Kinase 1 (S6K1) and S6 Kinase 2 (S6K2) (also known as p70S6K) which then phosphorylate S6 Ribosomal Protein (S6RP) (also known as RPS6)3. S6RP is phosphorylated on serine 235, serine 236, serine 240 and serine 244 by both pS6K1 and pS6K2. The mTOR Complex-2 (mTORC2) phosphorylates AKT on serine 473 which activates the AKT signaling pathway.
The assay measures a test compound's inhibition of S6RP serine-240/244 phosphorylation and inhibition of Akt serine-473 phosphorylation in human embryonic kidney derived HEK293T/17 cells (ATCC CRL-11268).
The HEK293T/17 cell line is maintained in DMEM media (Invitrogen catalogue number 41965-039) supplemented with 10% FCS at 37° C. in a 5% CO2 humidified incubator.
Cells are seeded in 96-well plates at 40,000 cells/well (pS6RP S240/244 assay) or 80,000 cells/well (pAkt S473 assay) in 90 μl growth media (DMEM, 2% FCS). Plates are incubated for 1 hour in a humidified incubator to allow the cells to adhere. Cells are treated with 8 concentrations of test compounds or DMSO alone for controls (final DMSO concentration 0.1%) and incubated at 37° C. for 2 hours. Then 20 μl of 5× concentrated lysis buffer (750 mM NaCl, 100 mM Tris pH7.4, 5 mM ADTA, 5 mM EGTA, 5% Triton X-100) is added, plates are sealed and incubated for 15 minutes at 4° C. with gentle shaking. After cell lysis, 25 μl cell lysate is transferred to a MesoScale plate coated with an antibody to pS6RP Ser240/244 (MesoScale Discovery K150DGD-3) or an antibody to pAkt Ser 473 (MesoScale Discovery K151DGD-3). Plates have been blocked before by incubation with 150 μl MesoScale Discovery Blocking Solution-A for 1 hour at room temperature followed by washing with 150 μl 1× Tris wash buffer per well. After the transfer of the cell lysate to the MSD plate, the pS6RP (or pAkt) protein is captured on the coated antibody by incubation at room temperature for 1 hour with gentle shaking. After the capture step the plate is washed three times with 150 μl of 1× Tris wash buffer per well. Then 25 μl detection antibody conjugated with a Sulfo-Tag is added and incubated for 1 hour at room temperature with gentle shaking. Subsequently the antibody solution is removed and the plate is washed 3 times with 150 μl×Tris wash buffer per well and 150 μl Read buffer is added. The plates are analysed on a MSD 2400 Plate Reader (MesoScale Discovery). Data analysis is performed using nonlinear regression for a sigmoidal dose-response with a variable slope.

[2] = kinobeads assay, Table 6, read-out: Inhibition values (IC50) PI3Kb
[3] = kinobeads assay, Table 6, read-out: Inhibition values (IC50) PI3Kg
[4] = kinobeads assay, Table 6, read-out: Inhibition values (IC50) PI3Ka
[5] = Further Kinobeads Data, read-out: PI3Kb
[6] = Further Kinobeads Data, read-out: PI3Kg

T3 sequence (P42336 whole entry): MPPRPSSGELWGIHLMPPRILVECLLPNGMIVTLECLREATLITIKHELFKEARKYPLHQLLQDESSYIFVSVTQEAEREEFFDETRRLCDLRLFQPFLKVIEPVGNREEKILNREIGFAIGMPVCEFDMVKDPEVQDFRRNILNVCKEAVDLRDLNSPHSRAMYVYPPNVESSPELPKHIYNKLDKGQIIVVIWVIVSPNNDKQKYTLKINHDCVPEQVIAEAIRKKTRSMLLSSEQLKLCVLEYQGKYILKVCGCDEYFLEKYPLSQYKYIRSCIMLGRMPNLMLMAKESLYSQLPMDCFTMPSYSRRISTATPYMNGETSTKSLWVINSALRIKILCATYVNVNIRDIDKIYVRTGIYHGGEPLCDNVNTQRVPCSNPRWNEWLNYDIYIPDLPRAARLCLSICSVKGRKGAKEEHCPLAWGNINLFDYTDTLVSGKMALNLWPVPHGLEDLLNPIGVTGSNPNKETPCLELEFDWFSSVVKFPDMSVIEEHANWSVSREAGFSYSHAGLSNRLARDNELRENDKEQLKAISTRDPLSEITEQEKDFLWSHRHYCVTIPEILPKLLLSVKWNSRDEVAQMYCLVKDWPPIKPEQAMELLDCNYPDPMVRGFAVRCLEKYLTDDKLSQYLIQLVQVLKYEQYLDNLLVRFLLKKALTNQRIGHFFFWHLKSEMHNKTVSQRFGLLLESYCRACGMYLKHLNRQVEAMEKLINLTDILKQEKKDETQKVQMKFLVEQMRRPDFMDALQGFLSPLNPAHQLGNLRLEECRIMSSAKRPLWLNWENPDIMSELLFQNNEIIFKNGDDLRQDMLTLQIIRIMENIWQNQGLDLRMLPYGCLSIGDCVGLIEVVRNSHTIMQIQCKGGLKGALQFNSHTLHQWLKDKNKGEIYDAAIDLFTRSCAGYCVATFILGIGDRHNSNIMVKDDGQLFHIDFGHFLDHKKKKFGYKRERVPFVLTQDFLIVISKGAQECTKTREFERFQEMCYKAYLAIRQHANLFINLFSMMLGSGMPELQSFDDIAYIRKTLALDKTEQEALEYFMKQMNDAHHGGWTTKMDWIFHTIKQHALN
T3 sequence (P27986 whole entry partner): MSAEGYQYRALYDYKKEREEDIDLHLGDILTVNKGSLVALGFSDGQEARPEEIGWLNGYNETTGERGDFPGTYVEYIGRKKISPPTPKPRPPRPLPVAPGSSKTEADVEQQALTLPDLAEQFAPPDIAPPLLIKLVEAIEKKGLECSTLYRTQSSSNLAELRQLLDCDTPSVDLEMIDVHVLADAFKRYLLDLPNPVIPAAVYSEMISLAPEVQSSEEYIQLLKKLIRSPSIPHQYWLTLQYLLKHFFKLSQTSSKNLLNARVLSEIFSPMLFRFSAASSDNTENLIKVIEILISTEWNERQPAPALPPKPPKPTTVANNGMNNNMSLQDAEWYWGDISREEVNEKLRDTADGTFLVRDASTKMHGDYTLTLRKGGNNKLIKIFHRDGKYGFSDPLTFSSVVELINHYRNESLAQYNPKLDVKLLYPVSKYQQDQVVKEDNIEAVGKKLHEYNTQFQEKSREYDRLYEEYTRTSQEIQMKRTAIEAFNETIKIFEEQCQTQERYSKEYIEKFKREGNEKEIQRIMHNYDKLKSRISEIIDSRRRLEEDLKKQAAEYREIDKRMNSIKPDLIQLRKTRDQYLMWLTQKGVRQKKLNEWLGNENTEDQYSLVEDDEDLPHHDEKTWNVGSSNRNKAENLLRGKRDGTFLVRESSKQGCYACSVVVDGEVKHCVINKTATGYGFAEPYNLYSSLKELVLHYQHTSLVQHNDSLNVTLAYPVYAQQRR
T1 sequence (P42338 whole entry): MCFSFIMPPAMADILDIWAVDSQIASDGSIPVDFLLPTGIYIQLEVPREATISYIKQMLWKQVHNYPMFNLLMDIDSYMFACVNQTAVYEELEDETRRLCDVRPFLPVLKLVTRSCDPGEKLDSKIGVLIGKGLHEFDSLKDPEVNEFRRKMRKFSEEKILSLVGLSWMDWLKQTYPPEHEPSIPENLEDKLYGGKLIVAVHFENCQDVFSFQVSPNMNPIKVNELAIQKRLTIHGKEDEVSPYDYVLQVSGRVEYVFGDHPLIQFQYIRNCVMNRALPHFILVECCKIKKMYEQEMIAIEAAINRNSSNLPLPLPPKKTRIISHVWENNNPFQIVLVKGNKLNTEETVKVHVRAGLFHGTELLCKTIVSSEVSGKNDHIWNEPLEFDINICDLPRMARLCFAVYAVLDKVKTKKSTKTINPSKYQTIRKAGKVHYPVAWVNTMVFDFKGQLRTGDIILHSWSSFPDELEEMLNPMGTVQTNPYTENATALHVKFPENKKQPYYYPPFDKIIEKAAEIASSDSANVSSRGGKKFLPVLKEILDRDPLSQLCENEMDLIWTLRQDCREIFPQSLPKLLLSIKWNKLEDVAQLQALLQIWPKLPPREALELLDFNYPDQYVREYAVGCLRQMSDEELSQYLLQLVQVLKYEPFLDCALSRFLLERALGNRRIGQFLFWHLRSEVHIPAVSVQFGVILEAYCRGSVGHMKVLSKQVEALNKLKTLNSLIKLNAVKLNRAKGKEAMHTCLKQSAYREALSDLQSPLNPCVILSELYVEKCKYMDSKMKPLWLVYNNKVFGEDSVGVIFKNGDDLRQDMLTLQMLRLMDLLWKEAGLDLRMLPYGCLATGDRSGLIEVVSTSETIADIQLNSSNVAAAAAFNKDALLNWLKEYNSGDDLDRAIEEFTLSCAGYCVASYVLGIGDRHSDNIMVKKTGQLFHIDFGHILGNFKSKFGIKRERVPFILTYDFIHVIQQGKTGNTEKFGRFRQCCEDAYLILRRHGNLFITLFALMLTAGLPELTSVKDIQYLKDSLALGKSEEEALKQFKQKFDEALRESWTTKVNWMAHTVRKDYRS
T1 sequence (P27986 whole entry partner): as the sequence (P27986 whole entry partner) above
T2 sequence (P48736 whole entry): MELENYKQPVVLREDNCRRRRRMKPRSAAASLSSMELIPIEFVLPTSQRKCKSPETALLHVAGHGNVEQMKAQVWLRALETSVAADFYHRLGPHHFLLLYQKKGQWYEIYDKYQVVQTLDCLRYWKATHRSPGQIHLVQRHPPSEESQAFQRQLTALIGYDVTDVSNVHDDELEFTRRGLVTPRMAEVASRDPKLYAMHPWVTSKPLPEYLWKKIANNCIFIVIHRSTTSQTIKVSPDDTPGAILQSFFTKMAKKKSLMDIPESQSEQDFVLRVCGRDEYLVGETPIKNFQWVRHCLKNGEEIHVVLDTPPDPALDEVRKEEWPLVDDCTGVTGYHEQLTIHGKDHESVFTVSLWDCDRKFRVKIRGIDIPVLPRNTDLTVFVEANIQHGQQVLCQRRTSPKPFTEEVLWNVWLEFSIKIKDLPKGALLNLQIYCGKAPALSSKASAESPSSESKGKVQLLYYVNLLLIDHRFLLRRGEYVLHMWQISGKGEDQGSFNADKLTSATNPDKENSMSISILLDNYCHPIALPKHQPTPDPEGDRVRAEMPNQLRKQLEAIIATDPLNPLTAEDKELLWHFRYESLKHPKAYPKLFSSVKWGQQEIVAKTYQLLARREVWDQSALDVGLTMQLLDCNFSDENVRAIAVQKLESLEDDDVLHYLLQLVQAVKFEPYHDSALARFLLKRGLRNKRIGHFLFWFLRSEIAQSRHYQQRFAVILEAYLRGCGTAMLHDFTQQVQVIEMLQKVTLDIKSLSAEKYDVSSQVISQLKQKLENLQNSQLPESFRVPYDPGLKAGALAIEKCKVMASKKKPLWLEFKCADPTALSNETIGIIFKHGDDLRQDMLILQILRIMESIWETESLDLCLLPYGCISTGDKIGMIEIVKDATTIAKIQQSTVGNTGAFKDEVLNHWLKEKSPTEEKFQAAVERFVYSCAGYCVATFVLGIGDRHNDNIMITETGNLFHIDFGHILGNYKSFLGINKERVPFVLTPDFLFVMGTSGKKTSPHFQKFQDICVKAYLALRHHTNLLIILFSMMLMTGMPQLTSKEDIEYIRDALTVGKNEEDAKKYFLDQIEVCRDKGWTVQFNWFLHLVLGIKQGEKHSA

SMILES: COC(=O)N1Cc2nc(-c3ccc(NC(=O)NCCO)cc3F)nc(N3CCOC[C@@H]3C)c2C1 [Example 181, (S)-methyl 2-(2-fluoro-4-(3-(2-hydroxyethyl)ureido)phenyl)-4-(3-methylmorpholino)-5H-pyrrolo[3,4-d]pyrimidine-6(7H)-carboxylate]
IC50 (PI3 Kbeta (PI3 Kb); [5]): > 10000 nM
IC50 (PI3 Kgamma (PI3 Kg); [6]): > 10000 nM
PI3Ka (PI3Kalpha (PI3Ka); Further Kinobeads Data): D (D >10 μM)
IC50 [1]: 962 nM

SMILES: CNC(=O)Nc1ccc(-c2nc3c(c(N4CCOC[C@@H]4C)n2)CCNC3)cc1 [Example 16, (S)-1-methyl-3-(4-(4-(3-methylmorpholino)-5,6,7,8-tetrahydropyrido[3,4-d]pyrimidin-2-yl)phenyl)urea]
IC50 [1]: 297 nM

SMILES: CCNC(=O)Nc1ccc(-c2nc3c(c(N4CCOC[C@@H]4C)n2)CN(CC)C3)cc1 [Example 39, (S)-1-ethyl-3-(4-(6-ethyl-4-(3-methylmorpholino)-6,7-dihydro-5H-pyrrolo[3,4-d]pyrimidin-2-yl)phenyl)urea]
IC50 [1]: 140 nM

SMILES: CCNC(=O)Nc1ccc(-c2nc3c(c(N4CCOC[C@@H]4C)n2)CCNC3)cc1 [Example 13, (S)-1-ethyl-3-(4-(4-(3-methylmorpholino)-5,6,7,8-tetrahydropyrido[3,4-d]pyrimidin-2yl)phenyl)urea]
IC50 [1]: 240 nM

SMILES: CCNC(=O)N1Cc2nc(-c3ccc(NC(=O)NC4CC4)cc3)nc(N3CCOC[C@@H]3C)c2C1 [Example 33, (S)-2-(4-(3-cyclopropylureido)phenyl)-N-ethyl-4-(3-methylmorpholino)-5H-pyrrolo[3,4-d]pyrimidine-6(7H)-carboxamide]
IC50 [1]: 379 nM

SMILES: C[C@H]1COCCN1c1nc(-c2ccc(NC(=O)NC3CC3)cc2)nc2c1CNCC2 [Example 11, (S)-1-cyclopropyl-3-(4-(4-(3-methylmorpholino)-5,6,7,8-tetrahydropyrido[4,3-d]pyrimidin-2-yl)phenyl)urea]
IC50 [1]: 588 nM

SMILES: C[C@H]1COCCN1c1nc(-c2ccc(NC(=O)NC3CC3)cc2)nc2c1CCNC2 [Example 15, (S)-1-cyclopropyl-3-(4-(4-(3-methylmorpholino)-5,6,7,8-tetrahydropyrido[3,4-d]pyrimidin-2-yl)phenyl)urea]
IC50 [1]: 238 nM

SMILES: COC(=O)N1Cc2nc(-c3ccc(NC(=O)NCCF)cc3F)nc(N3CCOCC3)c2C1 [Example 169, Methyl 2-(2-fluoro-4-(3-(2-fluoroethyl)ureido)phenyl)-4-morpholino-5H-pyrrolo[3,4-d]pyrimidine-6(7H)-carboxylate]
IC50 [1]: 143 nM

SMILES: C[C@H]1COCCN1c1nc(-c2ccc(NC(=O)NC3CCC3)cc2)nc2c1CN(C)C2 [Example 55, (S)-1-cyclobutyl-3-(4-(6-methyl-4-(3-methylmorpholino)-6,7-dihydro-5H-pyrrolo[3,4-d]pyrimidin-2-yl)phenyl)urea]
IC50 [1]: 435 nM

SMILES: C[C@H]1COCCN1c1nc(-c2ccc(NC(=O)NC3CC3)cc2)nc2c1CN(C)C2 [Example 38, (S)-1-cyclopropyl-3-(4-(6-methyl-4-(3-methylmorpholino)-6,7-dihydro-5H-pyrrolo[3,4-d]pyrimidin-2-yl)phenyl)urea]
IC50 [1]: 170 nM

SMILES: C[C@H]1COCCN1c1nc(-c2ccc(NC(=O)NC3CC3)cc2)nc2c1CN(CC1CC1)C2 [Example 30]
IC50 [1]: 170 nM

SMILES: CC(C)N1Cc2nc(-c3ccc(NC(=O)NC4CC4)cc3)nc(N3CCOC[C@@H]3C)c2C1 [Example 46, (S)-1-cyclopropyl-3-(4-(6-isopropyl-4-(3-methylmorpholino)-6,7-dihydro-5H-pyrrolo[3,4-d]pyrimidin-2-yl)phenyl)urea]
IC50 [1]: 147 nM

Further molecules by falling IC50 [1], results first:

IC50 (PI3 Kbeta (PI3 Kb); [5]): > 10000 nM
IC50 (PI3 Kgamma (PI3 Kg); [6]): > 10000 nM
PI3Ka (PI3Kalpha (PI3Ka); Further Kinobeads Data): D (D >10 μM)
IC50 [1]: 140 nM
SMILES: CCNC(=O)Nc1ccc(-c2nc3c(c(N4CCOC[C@@H]4C)n2)CN(C(=O)OC(C)(C)C)C3)c(F)c1 [Example 153, (S)-tert-butyl 2-(4-(3-ethylureido)-2-fluorophenyl)-4-(3-methylmorpholino)-5H-pyrrolo[3,4-d]pyrimidine-6-(7H)-carboxylate]

IC50 (PI3 Kbeta (PI3 Kb); [5]): > 10000 nM
IC50 (PI3 Kgamma (PI3 Kg); [6]): > 10000 nM
PI3Ka (PI3Kalpha (PI3Ka); Further Kinobeads Data): D (D >10 μM)
IC50 [1]: 135 nM
SMILES: CCOC(=O)N1Cc2nc(-c3ccc(NC(=O)NC4CC4)cc3F)nc(N3CCOCC3)c2C1 [Example 156, Ethyl 2-(4-(3-cyclopropylureido)-2-fluorophenyl)-4-morpholino-5H-pyrrolo[3,4-d]pyrimidine-6(7H)-carboxylate]

IC50 [1]: 113 nM
SMILES: CCN1Cc2nc(-c3ccc(NC(=O)NC4CC4)cc3)nc(N3CCOC[C@@H]3C)c2C1 [Example 36, (S)-1-cyclopropyl-3-(4-(6-ethyl-4-(3-methylmorpholino)-6,7-dihydro-5H-pyrrolo[3,4-d]pyrimidin-2-yl)phenyl)urea]

IC50 (PI3 Kbeta (PI3 Kb); [2]): > 10000 nM
IC50 (PI3 Kgamma (PI3 Kg); [3]): > 10000 nM
Inhibition values (IC50) PI3Ka (PI3Kalpha (PI3Ka); kinobeads assay, Table 6): D (D >10 μM)
IC50 [1]: 90 nM
SMILES: C[C@H]1COCCN1c1nc(-c2ccc(NC(=O)Nc3ccc(F)cc3)cc2)nc2c1CN(C)C2 [Example 52, (S)-1-(4-fluorophenyl)-3-(4-(6-methyl-4-(3-methylmorpholino)-6,7-dihydro-5H-pyrrolo[3,4-d]pyrimidin-2-yl)phenyl)urea]

IC50 (PI3 Kbeta (PI3 Kb); [5]): 1000 to 10000 nM
IC50 (PI3 Kgamma (PI3 Kg); [6]): 1000 to 10000 nM
IC50 (PI3Kalpha (PI3Ka); Further Kinobeads Data, read-out: PI3Ka): 1000 to 10000 nM
IC50 [1]: 76 nM
SMILES: CCNC(=O)Nc1ccc(-c2nc3c(c(N4CCOC[C@@H]4C)n2)CCN(C(=O)N(C)C)C3)c(F)c1 [Example 176, (S)-2-(4-(3-ethylureido)-2-fluorophenyl)-N,N-dimethyl-4-(3-methylmorpholino)-5,6-dihydropyrido[3,4-d]pyrimidine-7(8H)-carboxamide]

IC50 (PI3 Kbeta (PI3 Kb); [2]): > 10000 nM
IC50 (PI3 Kgamma (PI3 Kg); [3]): > 10000 nM
Inhibition values (IC50) PI3Ka (PI3Kalpha (PI3Ka); kinobeads assay, Table 6): D (D >10 μM)
IC50 [1]: 72 nM
SMILES: CCNC(=O)Nc1ccc(-c2nc3c(c(N4CCOC[C@@H]4C)n2)CN(CC2CC2)C3)cc1 [Example 28, (S)-1-(4-(6-(cyclopropylmethyl)-4-(3-methylmorpholino)-6,7-dihydro-5H-pyrrolo[3,4-d]pyrimidin-2-yl)phenyl)-3-ethylurea]

IC50 (PI3 Kbeta (PI3 Kb); [2]): 1000 to 10000 nM
IC50 (PI3 Kgamma (PI3 Kg); [3]): 1000 to 10000 nM
IC50 (PI3Kalpha (PI3Ka); [4]): 1000 to 10000 nM
IC50 [1]: 71 nM
SMILES: CC(C)N1CCc2c(nc(-c3ccc(NC(=O)NC4CC4)cc3)nc2N2CCOC[C@@H]2C)C1 [Example 43, (S)-1-cyclopropyl-3-(4-(7-isopropyl-4-(3-methylmorpholino)-5,6,7,8-tetrahydropyrido[3,4-d]pyrimidin-2-yl)phenyl)urea]

IC50 (PI3 Kbeta (PI3 Kb); [2]): 1000 to 10000 nM
IC50 (PI3 Kgamma (PI3 Kg); [3]): 1000 to 10000 nM
IC50 (PI3Kalpha (PI3Ka); [4]): 1000 to 10000 nM
IC50 [1]: 70 nM
SMILES: C[C@H]1COCCN1c1nc(-c2ccc(NC(=O)NC3CC3)cc2)nc2c1CCN(CC1CC1)C2 [Example 40, (S)-1-cyclopropyl-3-(4-(7-(cyclopropylmethyl)-4-(3-methylmorpholino)-5,6,7,8-tetrahydropyrido[3,4-d]pyrimidin-2-yl)phenyl)urea]

IC50 (PI3 Kbeta (PI3 Kb); [5]): > 10000 nM
IC50 (PI3 Kgamma (PI3 Kg); [6]): > 10000 nM
PI3Ka (PI3Kalpha (PI3Ka); Further Kinobeads Data): D (D >10 μM)
IC50 [1]: 63 nM
SMILES: CCOC(=O)N1Cc2nc(-c3ccc(NC(=O)NC4CC4)cc3F)nc(N3CCOC[C@H]3C)c2C1 [Example 179, (R)-ethyl 2-(4-(3-cyclopropylureido)-2-fluorophenyl)-4-(3-methylmorpholino)-5H-pyrrolo[3,4-d]pyrimidine-6(7H)-carboxylate]

IC50 (PI3 Kbeta (PI3 Kb); [2]): > 10000 nM
IC50 (PI3 Kgamma (PI3 Kg); [3]): > 10000 nM
Inhibition values (IC50) PI3Ka (PI3Kalpha (PI3Ka); kinobeads assay, Table 6): D (D >10 μM)
IC50 [1]: 63 nM
SMILES: C[C@H]1COCCN1c1nc(-c2ccc(NC(=O)NC3CC3)cc2)nc2c1CN(C(=O)C(C)(C)C)C2 [Example 45, (S)-1-cyclopropyl-3-(4-(4-(3-methylmorpholino)-6-pivaloyl-6,7-dihydro-5H-pyrrolo[3,4-d]pyrimidin-2-yl)phenyl)urea]
